The results in this text go back to article PMC1345695 (Nucleic Acids Research, 2006).

This assay has as its target wt tetrameric Lac repressor (tet. LacR) (Escherichia coli, UniProt P03023). Put plainly: band shift of operator DNA, IPTG titration, non-linear regression. The format is binding.

Sequence of wt tetrameric Lac repressor (tet. LacR) (P03023 whole entry): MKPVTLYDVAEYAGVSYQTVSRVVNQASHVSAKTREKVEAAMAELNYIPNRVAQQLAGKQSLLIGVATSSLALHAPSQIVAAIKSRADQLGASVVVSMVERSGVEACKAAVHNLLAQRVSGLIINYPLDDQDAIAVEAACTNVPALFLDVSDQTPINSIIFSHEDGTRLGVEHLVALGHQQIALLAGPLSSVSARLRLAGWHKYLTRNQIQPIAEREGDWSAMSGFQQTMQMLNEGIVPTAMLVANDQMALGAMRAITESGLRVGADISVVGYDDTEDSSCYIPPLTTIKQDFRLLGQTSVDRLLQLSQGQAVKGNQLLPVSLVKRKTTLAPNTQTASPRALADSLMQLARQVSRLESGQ

As for `CC(C)S[C@@H]1O[C@H](CO)[C@H](O)[C@H](O)[C@H]1O` [IPTG], the Kd (in general, the concentration at which binding is half-saturated) amounted to 8.2 µM.
